Source: US20250041377A1, “PHARMACEUTICAL USE” (ENLITISA (SHANGHAI) PHARMACEUTICAL CO., LTD., priority 2018, published 2025)
Where a SMILES comes first, the peptide text is derived from it. Where no end group is shown, it is not given here. [ ]: non-standard residue; d: D form. Dopa = N[C@@H](Cc1ccc(O)c(O)c1)C(=O)O; Hyp = O=C(O)[CH]1C[CH](O)CN1; 3Hyp = 3-hydroxyproline

Tests used:
[1] = Stability in phosphate buffer at different pHs (colour, HPLC peak area, purity); assay type: physicochemical; parameters: key to change of colour: NO means no colour changed was observed; + means a slight colour change is observed; ++ means a significant colour change is observed; conditions: for stability (overall result): phosphate buffer pH 5.3, 7.2, 8.1, room temperature then 45° C., 6 days
Procedure: Stabilities of Compounds A and B (obtained as described in Examples 1 and 3 above) were tested as follows.
10 mg of the compounds were each dissolved in 1 mL of distilled water to make a stock solution with a concentration of 10 mg/mL. Then, 200 μL of the stock solutions were diluted with 20 mM phosphate buffer (PB; Sigma-Aldrich China) with different pHs as indicated in Table 8 below.
All of the samples above were filtered through a 0.22 μm membrane (SLGV033RS; Sigma-Aldrich China) to remove potential bacteria in the solution on a super-clean bench after being prepared.
All the samples above were stored at room temperature and, three days later, were transferred to a 45° C. oven after initial sample analysis by HPLC (Column: Angilent ZORBAX Eclipse XDB-C18 (4.6×250 mm; 5 μm) (SN: USNH008244); buffer: A: 0.1% TFA in Water; B: 0.1% TFA in ACN; gradient: 0-25 minutes: 5%-30% B; 25-30 min: 100% B; flow rate: 1 mL/min; detection wavelength: 220 nm; sample volume: 20 μL).
The stability of the above samples was studied by observing the change of colour (Table 9), HPLC peak areas (Table 10) and purity (Table 11). The pH values for all samples were measured as being stable during the testing period.

[2] = DPPH assay of antioxidant capacity; conditions: 200 μL peptide solution in 3.8 mL 0.06 mg/mL DPPH; 1.5 hours, room temperature, dark; absorbance 517 nm
Procedure: The antioxidant capacity of Compound B was determined using a 2,2-diphenyl-1-(2,4,6-trinitrophenyl) hydrazyl (DPPH) assay.
Compounds A and B were obtained as described in Example 3 above. The peptide powders were stored at −20° C. and dissolved in saline at concentrations as indicated below. DPPH was purchased from Sigma-Aldrich China, Shanghai. Other reagents employed and identified below were purchased from Shanghai Aladdin Bio-Chem Technology Co. Ltd., China.
The DPPH method is one of the most commonly used methods in determination of antioxidant capacity. DPPH is a stable, nitrogen-centred free radical with a dark purple solution and a maximum absorption peak at 517 nm. When a free radical scavenger is present in the reaction system, it can be paired with a single electron of DPPH., and the absorption peak at 517 nm is gradually dissipated.
The degree of colour change bears a stoichiometric relationship to the number of paired electrons. Thus, antioxidant activity can be measured according to the change of absorbance. The greater the inhibition rate, the stronger the antioxidant capacity. […]
200 μL of peptide solution was added to 3.8 mL of the DPPH solution. […] The absorbance at 517 nm was measured and was denoted as A1. The absorbance of the blank control sample was denoted as A0. Thus, the percentage of the […] is calculated as: Clearance rate (%)=[A0−A1]/A0×100

[3] = 20 mM phosphate buffer pH 5.3, Day 0
[4] = 20 mM phosphate buffer pH 7.2, Day 0
[5] = 20 mM phosphate buffer pH 8.1, Day 0
[6] = pH 5.3, Day 1, room temperature
[7] = pH 5.3, Day 3 (Transfer to 45° C.)
[8] = pH 7.2, Day 1, room temperature
[9] = pH 7.2, Day 3 (Transfer to 45° C.)
[10] = pH 8.1, Day 1, room temperature
[11] = pH 8.1, Day 3 (Transfer to 45° C.)

CC(N)C(=O)NC(CCCCN)C(=O)N1CCCC1C(=O)NC(CO)C(=O)NC(Cc1ccc(O)cc1)C(=O)N1CC(O)CC1C(=O)N1CC(O)CC1C(=O)NC(C(=O)NC(Cc1ccc(O)cc1)C(=O)NC(CCCCN)C(=O)O)C(C)O (stereo not drawn) [Compound B, Ala-Lys-Pro-Ser-Tyr-Hyp-Hyp-Thr-Tyr-Lys] (H-AKPSY[Hyp][Hyp]TYK-OH; configuration not given here)
HPLC peak area as area % of Day 0's result [1, 3]: 100%
change of colour [1, 3]: NO
purity (HPLC) in stability study [1, 3]: 99.2%
change of colour [1, 4]: NO
purity (HPLC) in stability study [1, 4]: 99.6%
HPLC peak area as area % of Day 0's result [1, 5]: 100%
change of colour [1, 5]: NO
purity (HPLC) in stability study [1, 5]: 99.5%
HPLC peak areas over time ([1]; at pH 7.2 and pH 8.1): decreased significantly
HPLC peak area as area % of Day 0's result [1, 6]: 100.0%
change of colour [1, 6]: NO
purity (HPLC) in stability study [1, 6]: 99.2%
HPLC peak area as area % of Day 0's result [1, 7]: 99.9%
change of colour [1, 7]: NO
purity (HPLC) in stability study [1, 7]: 98.4%
HPLC peak area as area % of Day 0's result ([1]; pH 5.3, Day 6 (45° C.)): 102.4%
change of colour ([1]; pH 5.3, Day 6 (45° C.)): NO
purity (HPLC) in stability study ([1]; pH 5.3, Day 6 (45° C.)): 99.0%
change of colour [1, 8]: NO
purity (HPLC) in stability study [1, 8]: 99.3%
HPLC peak area as area % of Day 0's result [1, 9]: 100%
change of colour [1, 9]: NO
purity (HPLC) in stability study [1, 9]: 98.7%
HPLC peak area as area % of Day 0's result ([1]; pH 7.2, Day 6 (45° C.)): 100.6%
change of colour ([1]; pH 7.2, Day 6 (45° C.)): NO
purity (HPLC) in stability study ([1]; pH 7.2, Day 6 (45° C.)): 98.2%
HPLC peak area as area % of Day 0's result [1, 10]: 98.9%
change of colour [1, 10]: NO
purity (HPLC) in stability study [1, 10]: 99.4%
HPLC peak area as area % of Day 0's result [1, 11]: 99.2%
change of colour [1, 11]: NO
purity (HPLC) in stability study [1, 11]: 98.4%
HPLC peak area as area % of Day 0's result ([1]; pH 8.1, Day 6 (45° C.)): 97.0%
change of colour ([1]; pH 8.1, Day 6 (45° C.)): NO
purity (HPLC) in stability study ([1]; pH 8.1, Day 6 (45° C.)): 96.4%
stability (overall result) [1]: stable at all pH values
HPLC peak areas over time ([1]; three samples, pH 5.3, 7.2, 8.1): almost unchanged
DPPH clearance rate [2]: 8.9%

Ala-Lys-Pro-Ser-Tyr-Hyp-Hyp-Thr-DOPA-Lys (AKPSY[3Hyp][Hyp]T[Dopa]K; listed as Mytilus edulis) [Compound A]
HPLC peak area as area % of Day 0's result [1, 3]: 100%
change of colour [1, 3]: NO
purity (HPLC) in stability study [1, 3]: 99.4%
HPLC peak area as area % of Day 0's result [1, 4]: 100%
change of colour [1, 4]: NO
purity (HPLC) in stability study [1, 4]: 98.9%
HPLC peak area as area % of Day 0's result [1, 5]: 100%
change of colour [1, 5]: NO
purity (HPLC) in stability study [1, 5]: 96.3%
oxidation judged by HPLC purity ([1]; at pH 7.2 and pH 8.1): most of Compound A was oxidized
HPLC peak area as area % of Day 0's result [1, 6]: 100.1%
change of colour [1, 6]: NO
purity (HPLC) in stability study [1, 6]: 99.2%
HPLC peak area as area % of Day 0's result [1, 7]: 100.3%
change of colour [1, 7]: NO
purity (HPLC) in stability study [1, 7]: 99.4%
HPLC peak area as area % of Day 0's result ([1]; pH 5.3, Day 6 (45° C.)): 99.6%
change of colour ([1]; pH 5.3, Day 6 (45° C.)): NO
purity (HPLC) in stability study ([1]; pH 5.3, Day 6 (45° C.)): 98.0%
HPLC peak area as area % of Day 0's result [1, 8]: 89.0%
change of colour [1, 8]: +
purity (HPLC) in stability study [1, 8]: 92.1%
HPLC peak area as area % of Day 0's result [1, 9]: 41.7%
change of colour [1, 9]: +
purity (HPLC) in stability study [1, 9]: 94.8%
HPLC peak area as area % of Day 0's result ([1]; pH 7.2, Day 6 (45° C.)): 11.5%
change of colour ([1]; pH 7.2, Day 6 (45° C.)): ++
purity (HPLC) in stability study ([1]; pH 7.2, Day 6 (45° C.)): 13.8%
HPLC peak area as area % of Day 0's result [1, 10]: 64.8%
change of colour [1, 10]: ++
purity (HPLC) in stability study [1, 10]: 61.0%
HPLC peak area as area % of Day 0's result [1, 11]: 21.7%
change of colour [1, 11]: ++
purity (HPLC) in stability study [1, 11]: 52.5%
HPLC peak area as area % of Day 0's result ([1]; pH 8.1, Day 6 (45° C.)): 3.8%
change of colour ([1]; pH 8.1, Day 6 (45° C.)): ++
purity (HPLC) in stability study ([1]; pH 8.1, Day 6 (45° C.)): 3.9%
stability (overall result) [1]: stable only at pH 5.3
DPPH clearance rate [2]: 52.11%
